Source: patent US20220282217A1, “COMPOSITIONS AND METHODS FOR PREPARING T CELL COMPOSITIONS AND USES THEREOF” (priority 2019, published 2022)
Read-outs that look alike come from different tables or passages of the source. Blank lines part the entries; values can stand above or below the molecule they belong to. Where a SMILES comes first, the peptide text is derived from it.

Assays:
HLA-A11.01 = HLA-A11.01 (Homo sapiens, UniProt P04439, A114D/D185E/E176A/F33Y/L180Q/S129P/T187R); assay: Class I MHC peptide binding affinity (displacement of radiolabeled reference peptide)
HLA-A03.01 [1] = target: T1, HLA-A03.01 (Homo sapiens, UniProt P04439); assay: as above
HLA-A02.01 [2] = target: T2, HLA-A02.01 (Homo sapiens, UniProt P04439, D140Y/D185E/D98H/E176V/E277Q/G131W/G231S/I119V/I121R/I166T/I218V/N151K/N90K/P208A/P217A/Q86G/Q94H/R138H/R169H); assay: Class I MHC peptide binding stability (pMHC-I dissociation, 125I-labeled light chain); details: allele A02.01
T2 construct: made in house; host or cells: E. coli

HLA-A03.01 [3] = target: T1, HLA-A03.01; assay: as above; parameters: made in house; host or cells: E. coli; details: for Stability (T1/2 (h)): allele A03.01
HLA-A02.01 [4] = target: HLA-A02.01 (Homo sapiens, UniProt P04439, D140Y/D185E/D98H/E176V/E277Q/G131W/G231S/I119V/I121R/I166T/I218V/L300P/L318F/N151K/N90K/P208A/P217A/Q86G/Q94H/R138H/R169H/T345S); assay: Class I MHC peptide binding affinity (displacement of radiolabeled reference peptide); details: allele A02.01, (nM))
Method in brief: (§1)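 Read-out: radioactivity of reference peptide retained on MHCI, separated from free label by gel-filtration size exclusion. Competing peptides are titrated against the preformed complexes and incubated two days beforehand.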

[5] = target: 293T cells transduced with GATA3 neoORF, expressing the HLA of interest (Homo sapiens, UniProt P01889); assay: Presentation of GATA3 neoantigens: HLA-eluted peptides by targeted MS/MS (PRM) (Table 14); type: cell-based; details: GATA3 neoORF transduced 293T cells expressing HLA-B*07:02 protein
Method: To assess whether antigens could be processed and presented from the larger polypeptide context, peptides eluted from HLA molecules isolated from cells expressing the genes of interest were analyzed by tandem mass spectrometry (MS/MS).
Between 50 and 700 million of the transduced cells expressing peptides encoded by the GATA3 neoORF sequence were cultured and peptides were eluted from HLA-peptide complexes using an acid wash. Eluted peptides were then analyzed by targeted MS/MS using PRM. Spectral comparison between peptides derived from GATA3 neoORF and corresponding synthetic peptides were performed to confirm each detection.

HLA-B07.02 = HLA-B07.02 (Homo sapiens, UniProt P01889); assay: Class I MHC peptide binding affinity (displacement of radiolabeled reference peptide)
HLA-A01.01 [6] = target: T3, HLA-A01.01 (Homo sapiens, UniProt P04439, A114D/A174V/A182V/D101N/E190D/Q94H/R68K/S129P/V100A/V91M/W191G); assay: Class I MHC peptide binding stability (pMHC-I dissociation, 125I-labeled light chain)
T3 construct: made in house; host or cells: E. coli

HLA-A01.01 [7] = target: HLA-A01.01 (Homo sapiens, UniProt P04439, A114D/A174V/A182V/D101N/D185E/E176A/E190D/L180R/Q94H/R68K/S129P/T187R/V100A/V91M/W191G); assay: Class I MHC peptide binding affinity (displacement of radiolabeled reference peptide)
Method in brief: as §1

HLA-B08.01 [8] = target: T4, HLA-B08.01 (Homo sapiens, UniProt P01889, A93T/A95T/D138N/E176V/E187T/K202T/Q94N/R180D/S35A/V36M/Y33D/Y91F); assay: Class I MHC peptide binding stability (pMHC-I dissociation, 125I-labeled light chain); details: Allele B08.01
HLA-B08.01 [9] = target: T4, HLA-B08.01; assay: Class I MHC peptide binding affinity (displacement of radiolabeled reference peptide)
Method in brief: as §1

[10] = allele A11.01, read-out: Observed Affinity (IC50, (nM))
[11] = allele A03.01, read-out: Observed Affinity (IC50, (nM))

Compound: CC[C@H](C)[C@H](NC(=O)[C@@H](N)CCCCN)C(=O)N[C@@H](CO)C(=O)N[C@@H](CC(N)=O)C(=O)N[C@@H](Cc1c[nH]c2ccccc12)C(=O)N[C@@H](CO)C(=O)N[C@@H](CC(C)C)C(=O)N[C@@H](CCCCN)C(=O)N[C@@H](CCCCN)C(=O)O (H-KISNWSLKK-OH; N-terminus and C-terminus assumed)
- IC50 (HLA-A11.01; [10]): 9.8 nM
- IC50 (HLA-A03.01 [1]; [11]): 8.8 nM

Compound: CC(C)C[C@H](NC(=O)[C@H](Cc1ccccc1)NC(=O)[C@H](CO)NC(=O)[C@H](CC(C)C)NC(=O)[C@H](CS)NC(=O)[C@H](CO)NC(=O)[C@H](Cc1ccccc1)NC(=O)[C@H](CC(C)C)NC(=O)[C@@H](N)CCCCN)C(=O)O (H-KLFSCLSFL-OH; N-terminus and C-terminus assumed)
- Stability (T1/2 (h)) (HLA-A02.01 [2]): 14.3 h
- Stability (T1/2 (h)) (HLA-A03.01 [3]): 0.8 h
- IC50 (HLA-A02.01 [4]; read-out: Observed Affinity (IC50): 6 nM
- IC50 (HLA-A03.01 [1]; [11]): 308 nM

Compound: CSCC[C@H](NC(=O)[C@H](Cc1ccc(O)cc1)NC(=O)CNC(=O)[C@H](CC(=O)O)NC(=O)[C@H](CCCNC(=N)N)NC(=O)[C@H](CCCCN)NC(=O)[C@@H]1CCCN1C(=O)[C@@H](N)CCCCN)C(=O)N[C@@H](Cc1ccccc1)C(=O)O (H-KPKRDGYMF-OH; N-terminus and C-terminus assumed)
- detected by mass spectrometry (peptide eluted from HLA-peptide complexes) [5]: detected
- IC50 (HLA-B07.02; Allele B07.02, read-out: Observed Affinity (IC50, (nM))): 28.2 nM

Compound: CC[C@H](C)[C@H](NC(=O)[C@H](CC(C)C)NC(=O)[C@H](CCC(N)=O)NC(=O)[C@@H](NC(=O)[C@@H](NC(=O)[C@H](CO)NC(=O)[C@@H](NC(=O)[C@@H](N)CC(C)C)[C@@H](C)O)[C@@H](C)O)C(C)C)C(=O)N[C@@H](CCSC)C(=O)O (H-LTSTVQLIM-OH; N-terminus and C-terminus assumed)
- Stability (half-life (hr.)) (HLA-A01.01 [6]; EGFR T790M peptides, HLA allele A01.01): 0.1037 h
- Kd (HLA-A01.01 [7]): 2890 nM
- IC50 (HLA-A01.01 [7]; Observed Affinity (IC50, (nM)), allele A01.01): 2890 nM

Compound: CC[C@H](C)[C@H](NC(=O)[C@H](Cc1ccc(O)cc1)NC(=O)[C@H](CCCCN)NC(=O)CNC(=O)[C@H](CCCNC(=N)N)NC(=O)[C@H](CCCCN)NC(=O)[C@H](Cc1c[nH]cn1)NC(=O)[C@H](CC(C)C)NC(=O)[C@@H](N)Cc1c[nH]c2ccccc12)C(=O)O (H-WLHKRGKYI-OH; N-terminus and C-terminus assumed)
- Stability (T1/2 (h)) (HLA-B08.01 [8]): 1.3 h
- Stability (T1/2 (h)) (HLA-A02.01 [2]): 1.2 h
- IC50 (HLA-A02.01 [4]; Observed Affinity (IC50): 1250 nM
- IC50 (HLA-B08.01 [9]): 417 nM
- IC50 (HLA-B07.02): 2650 nM

Compound: CSCC[C@H](NC(=O)[C@@H](N)Cc1ccc(O)cc1)C(=O)N[C@@H](C)C(=O)N[C@@H](CC(N)=O)C(=O)NCC(=O)N[C@@H](CO)C(=O)N[C@@H](CC(C)C)C(=O)N[C@@H](CC(C)C)C(=O)N[C@@H](CC(N)=O)C(=O)N[C@@H](Cc1ccc(O)cc1)C(=O)O (H-YMANGSLLNY-OH; N-terminus and C-terminus assumed)
- Stability (half-life (hr.)) (HLA-A01.01 [6]; BTK C481S peptide, HLA Allele A01.01): 0.8662 h
- IC50 (HLA-A11.01; BTK C481S peptide, HLA Allele A11.01, read-out: Affinity): 974 nM
- Stability (half-life (hr.)) (HLA-A03.01 [3]; BTK C481S peptide, HLA Allele A03.01): 0.2791 h
- IC50 (HLA-A01.01 [7]; BTK C481S peptide, HLA Allele A01.01, read-out: Affinity): 13.2 nM
- IC50 (HLA-A01.01 [7]; allele A01.01, read-out: Observed Affinity (IC50, (nM))): 13.2 nM
- IC50 (HLA-A03.01 [1]; BTK C481S peptide, HLA Allele A03.01, read-out: Affinity): 95.9 nM
- IC50 (HLA-A03.01 [1]; [11]): 95.9 nM

Now from value to molecule:

- Stability (T1/2 (h)) (HLA-A03.01 [3]): 13.5 h
- IC50 (HLA-A03.01 [1]; [11]): 7 nM
Compound: CC(C)[C@H](NC(=O)[C@@H](N)CCCCN)C(=O)N[C@@H](CO)C(=O)N[C@@H](CCCNC(=N)N)C(=O)N[C@@H](CCC(=O)O)C(=O)N[C@@H](CC(N)=O)C(=O)N[C@H](C(=O)N[C@@H](CO)C(=O)N1CCC[C@H]1C(=O)N[C@@H](CCCCN)C(=O)O)[C@@H](C)O (H-KVSRENTSPK-OH; N-terminus and C-terminus assumed)

- IC50 (HLA-A11.01; [10]): 15.8 nM
- IC50 (HLA-A03.01 [1]; [11]): 15.7 nM
Compound: CSCC[C@H](NC(=O)[C@H](C)NC(=O)[C@@H](N)CO)C(=O)N[C@H](C(=O)N[C@H](C(=O)N[C@@H](CO)C(=O)N[C@@H](CO)C(=O)N[C@@H](CO)C(=O)N[C@@H](CCC(N)=O)C(=O)N[C@@H](CCCCN)C(=O)O)[C@@H](C)O)[C@@H](C)O (H-SAMTTSSSQK-OH; N-terminus and C-terminus assumed)

- IC50 (HLA-A11.01; [10]): 129 nM
- IC50 (HLA-A03.01 [1]; [11]): 4.4 nM
Compound: CC(C)C[C@H](NC(=O)[C@H](C)NC(=O)[C@@H]1CCCN1C(=O)[C@@H](NC(=O)[C@H](CCCCN)NC(=O)[C@H](CCCCN)NC(=O)[C@H](CC(C)C)NC(=O)[C@@H](N)CO)C(C)C)C(=O)N[C@@H](CCCCN)C(=O)O (H-SLKKVPALK-OH; N-terminus and C-terminus assumed)
